Tested on: Fli:EGFP zebrafish larvae
Assay: High fat diet zebrafish larvae model with fluorescent cholesterol ester, ezetimibe added to the tank water, confocal imaging
Type: in vivo, zebrafish (Danio rerio)
Settings: 10 days on high fat diet with fluorescent (red) cholesterol ester
Procedure: Spray cholesterol (4% in ether) on the fish food, let it dry for 2 hours in a fume hood. Collect and keep at 4° C. Feed the fish with high-cholesterol food for 7 days to 8 weeks.
To visualize the lipid in larvae zebrafish, add to the cholesterol ether solution 10 μg/ml of cholesteryl BODIPY 576/589 C11 (Invitrogen, C12681). […] Feed fli:EGFP zebrafish with this high-cholesterol diet for one week.
Use a fluorescent confocal microscope to image dorsal aorta of a fli:EGFP zebrafish (wild type or ApoE knockdown) that was placed on a high-cholesterol diet, and compare with a control zebrafish that was fed a normal diet.
Visualize using a C1si confocal microscope: • endothelial cell morphology and the morphology of the vessel • accumulation of fluorescent lipid in the artery wall
FIG. 5. Ezetimibe reduces cholesterol absorption in zebrafish intestine (A) and prevents vascular damage (B). Fli:EGFP zebrafish larvae were feeding for 10 days on high fat diet with a fluorescent (red) cholesterol ester, with or without the addition of ezetimibe in the tank water. Ezetimibe, or (3R,4S)-1-(4-fluorophenyl)-3-((3S)-3-(4-fluorophenyl)-3-hydroxypropyl)-4-(4-hydroxyphenyl)-2-azetidinone, is an FDA-approved medicine (marketed as ZETIA™), which inhibits the absorption of cholesterol by the small intestine. […] Remarkably, ezetimibe rescued blood vessels from high fat diet-induced damage.

O=C1[C@H](CC[C@H](O)c2ccc(F)cc2)[C@@H](c2ccc(O)cc2)N1c1ccc(F)cc1 [Ezetimibe, (3R,4S)-1-(4-fluorophenyl)-3-((3S)-3-(4-fluorophenyl)-3-hydroxypropyl)-4-(4-hydroxyphenyl)-2-azetidinone]
level of cholesterol accumulated in the digestive system (intensity of red fluorescence) (FIG. 5(A)): considerably reduced a level of cholesterol accumulated in the digestive system
pathological changes in the endothelial layer morphology inflicted by high fat diet (vascular damage) (FIG. 5(B)): prevented pathological changes in the endothelial layer morphology

Reference: patent US9220243B2, “Models of atherosclerosis, hyperlipidemia, lipoprotein oxidation and blood vessel inflammation and methods for making and using them” (THE REGENTS OF THE UNIVERSITY OF CALIFORNIA, priority 2006, dated 2015)
